The numbers were not newly measured in patent US12286423B2, “Antiviral 1,3-di-oxo-indene compounds” (Novartis AG, priority 2020, dated 2025), which cites them from elsewhere.

Data set [1] relates to rhinoviruses and enteroviruses. As to conditions: cited from earlier work.
The conditions of data set [2]: cited from earlier work.
For data set [3] the following is noted: in vivo; cited from earlier work.
The conditions of data set [4]: in vivo; cited from earlier work. This is another data set of the same source.

Regarding `CCC(=O)C(CCCCCCOc1ccc(OC)cc1Cl)C(=O)CC` [Arildone], in data set [1], the “antiviral effects in the cell culture” value is listed as “very good antiviral effects”. Further, the solubility entry in data set [2] is recorded as “poor solubility”. Also, the bioavailability result in data set [3] is recorded as “low bioavailability”.

For the compound `Cc1cc(CCCCCOc2c(Cl)cc(C3=NCCO3)cc2Cl)on1` [WIN 54954], the metabolization and excretion entry in data set [3] is “rapid metabolization and excretion”. Further, the side effects entry in data set [4] is on record as “skin rash”.
